Assay results reported in patent publication US20100158829A1, “Method and Composition for Color Modulation” (Conopco, Inc., d/b/a UNILEVER, priority 2008, published 2010).

Legend:
mushroom tyrosinase [1] = experiment: Mushroom tyrosinase assay with L-dopa; assay type: biochemical; conditions: Tested at 1 μM
mushroom tyrosinase [2] = experiment: Mushroom tyrosinase assay with L-dopa; assay type: biochemical; conditions: for Mushroom Tyrosinase at 100 μM (% of control): test compound 100 μM, percent of untreated control reaction
Method: A stock solution of 10 mM L-dopa (3,4-Dihydroxyphenylalanine, Sigma Cat #D9628) was prepared in sodium phosphate buffer (100 mM, pH 7.0) along with a stock solution of 0.1 mg/mL (605 units/ml) mushroom tyrosinase (Sigma cat #T7755) in phosphate buffer and stored at […] 4° C. until use.
Test compounds (dissolved in DMSO) were first diluted in phosphate buffer to working concentrations of 1 mM. For each test, 150 μL of phosphate buffer, 10 μL of the L-dopa stock and 20 μL of each compound were added to each well of a 96 well clear bottom microtiter plate and mixed three times. 20 μL of mushroom tyrosinase stock solution was added, mixed and the absorbency read at 475 nm at 0, 2, 4, and 6.5 minutes. The points were plotted as absorbency vs. time and the slope of the line calculated. Values are expressed as the percent of the respective untreated control reaction. The final DMSO concentration in each sample was less than or equal to 1.0%

D-dopachrome tautomerase = D-dopachrome tautomerase (Homo sapiens, UniProt P30046); experiment: D-dopachrome tautomerase (DDT) enzyme assay with D-dopachrome substrate; assay type: biochemical; conditions: for D-Dopachrome Tautomerase at 100 μM (% of control): test compound 100 μM, remaining activity, 100% = inactive; for IC50: DDT assays similar to those described in Example 2
Sequence of D-dopachrome tautomerase (P30046 2-118 limits assumed): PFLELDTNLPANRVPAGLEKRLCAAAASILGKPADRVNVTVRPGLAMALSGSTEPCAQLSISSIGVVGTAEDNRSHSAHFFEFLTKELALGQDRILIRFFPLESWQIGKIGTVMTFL
Method: A 125-mM sodium periodate working solution was prepared in H2O in an amber 5-mL vial (prepared fresh on the day of the assay). 4.3 mg of dihydroxy-D-phenylalanine (D-dopa) were weighed into a 20 mL scintillation vial equipped with a pierceable septa screw cap. With the use of a liquid transfer cannula, 12 mL of degassed buffer was first transferred into a 15 mL graduated conical tube and subsequently poured into the scintillation vial containing the D-dopa. The D-dopa was dissolved for ten (10) minutes while stirring under nitrogen. The resulting working solution was 1.8 mM. Once sodium periodate was added to the dissolved D-dopa, the resulting D-dopachrome was utilized immediately to prevent substrate degradation.
Concentrations were based on a final reaction volume of 200 μL. A total of 75 μL of buffer (100 mM potassium phosphate, pH 6.8) was added to each well of a clear flat bottom 96-well microtiter plate. To the blank control wells (no DDT), 25 μL of 10% glycerol/assay buffer was added. DMSO (5 μL) was added to blank wells and to the enzyme control wells (DDT alone with no inhibitors). […] To the remaining wells, 5 μL of test compounds diluted in DMSO was added for a final concentration of 100 μM. Lastly, 25 μL of DDT in assay buffer was added to all wells except for the substrate control wells. The concentration of DDT utilized was such that it produced a ΔOD475 of approximately 1.0 at the 40-second read time point between the blank and total.
With the use of a 1 mL syringe, 0.33 ml of the 125 mM sodium periodate working solution was added to the dissolved D-dopa and stirred for 30 seconds. The resulting D-dopachrome was transferred to a reagent reservoir and 100 μL immediately added to the first row of interest in the assay plate (resulting final substrate concentration in the assay is 0.9 mM). The plate was shaken for 2 seconds on a Spectromax plate reader and the decrease in absorbance measured over 40 seconds. 100 μL of D-dopachrome was added to the next row of interest in the assay plate and this procedure was repeated until four (4) rows were assayed and read. Often approximately 6-7 minutes, the remaining substrate was discarded.
Percent inhibition was calculated utilizing the OD values at the 40-second time point according to the following formula:
• A=percent inhibition of the unknown; • B=average percent inhibition for the 4 positive control values (within 4 distinct assay rows) generated with a single batch of substrate also used to assay the unknown of interest; • C=percent inhibition for the positive control for the assay row of interest which contains the unknown compound of interest.

[3] = tested on: Melanoderm tissue equivalent model MEL-300 containing melanocytes; experiment: Melanoderm tissue equivalent model, total melanin content; assay type: cell-based; conditions: 10 μM in maintenance medium, 14 days
Method: Melanoderm™ tissue equivalent model MEL-300 (MatTek: Ashland, Mass.) containing melanocytes obtained from dark skin individuals were cultured as per supplier instructions. Components were added to the maintenance medium phase (no topical treatments) at a final concentration of 10 μM for 14 days at which time the experiment was terminated and the tissues assessed for melanin content. Medium and treatments were changed three times per week. DMSO was utilized as the vehicle control and all treatments were performed in duplicate.
For quantification of total melanin, each Melanoderm was placed into an individual Eppendorf tube (2 mL) into which 250 μL of Solvable™ tissue solubilizer (Packard Bioscience Co., Cat#6NE9100) was added. Each tube was vortexed and incubated at 60° C. for 18 hours. After about […], each sample was centrifuged (5-minutes at 13,000 RPMs) to remove any particulates. One hundred μL of supernatant were transferred to a 96 well microtiter plate and the absorbance read at 490 nm. Total melanin content was calculated from a standard curve using synthetic melanin (Sigma Cat#M8631).
All the following components were tested at a final concentration of 10 μM: […]

D-Dopachrome Tautomerase at 100 μM (% of control) (D-dopachrome tautomerase)	Mushroom Tyrosinase at 100 μM (% of control) (mushroom tyrosinase [2])	Compound	other results
65.7% of control	100.6% of control	CC(C)CC(C(=O)NC1CCCC1)N(C(=O)c1snc(C(N)=O)c1N)c1ccc(F)cc1 (stereo not drawn) [N5-(1-(cyclopentylcarbamoyl)-3-methylbutyl)-4-amino-N5-(4-fluorophenyl)isothiazole-3,5-dicarboxamide]	–
69.2% of control	89.4% of control	CC(C)CC(C(=O)NC1CCCC1)N(C(=O)c1snc(C(N)=O)c1N)c1ccccc1 (stereo not drawn) [N5-(1-(cyclopentylcarbamoyl)-3-methylbutyl)-4-amino-N5-phenylisothiazole-3,5-dicarboxamide]	–
66.8% of control	101.8% of control	NC(=O)c1nsc(C(=O)N(c2ccccc2)C(C(=O)NC2CCCC2)c2cccs2)c1N (stereo not drawn) [N5-((cyclopentylcarbamoyl)(thiophen-2-yl)methyl)-4-amino-N5-phenylisothiazole-3,5-dicarboxamide]	–
40.9% of control	96.0% of control	CC(C)(C)NC(=O)C(c1c[nH]c2ccccc12)N(C(=O)c1snc(C(N)=O)c1N)c1ccccc1 (stereo not drawn) [N5-((tert-butylcarbamoyl)(1H-indol-3-yl)methyl)-4-amino-N5-phenylisothiazole-3,5-dicarboxamide]	–
48.0% of control	106.1% of control	CC(C)(C)NC(=O)C(c1ccc(F)cc1)N(C(=O)c1snc(C(N)=O)c1N)c1cccc(F)c1 (stereo not drawn) [N5-((tert-butylcarbamoyl)(4-fluorophenyl)methyl)-4-amino-N5-(3-fluorophenyl)isothiazole-3,5-dicarboxamide]	–
69.9% of control	98.6% of control	CC(C)(C)NC(=O)C(c1ccc(F)cc1)N(Cc1ccccc1)C(=O)c1snc(C(N)=O)c1N (stereo not drawn) [N5-((tert-butylcarbamoyl)(4-fluorophenyl)methyl)-4-amino-N5-benzylisothiazole-3,5-dicarboxamide]	–
52.3% of control	101.9% of control	CC(C)(C)NC(=O)C(c1ccc(F)cc1)N(C(=O)c1snc(C(N)=O)c1N)c1ccccc1 (stereo not drawn) [N5-((tert-butylcarbamoyl)(4-fluorophenyl)methyl)-4-amino-N5-phenylisothiazole-3,5-dicarboxamide]	–
64.3% of control	102.5% of control	CCCC(C(=O)NC(C)(C)C)N(Cc1ccccc1Cl)C(=O)c1snc(C(N)=O)c1N (stereo not drawn) [N-5-(1-(tert-butylcarbamoyl)butyl)-N5-(2-chlorobenzyl)-4-aminoisothiazole-3,5-dicarboxamide]	–
65.3% of control	100.0% of control	CNC(=O)c1ccccc1NC(=O)c1c(O)nc2c(c1O)CCCC2 [N-(2-(methylcarbamoyl)phenyl)-5,6,7,8-tetrahydro-2,4-dihydroxyquinoline-3-carboxamide]	–

Continued, compound first:

Compound	D-Dopachrome Tautomerase at 100 μM (% of control) (D-dopachrome tautomerase)	Mushroom Tyrosinase at 100 μM (% of control) (mushroom tyrosinase [2])	other results
CCc1ccc(O)cc1O [4-Ethyl Resorcinol, reference compound]	100% of control	–	Mushroom Tyrosinase (% of control) (mushroom tyrosinase [1]): 42.3% of control; inhibition of mushroom tyrosinase (in words) (mushroom tyrosinase [2]): potent inhibitor; activity in the DDT assay (in words) (D-dopachrome tautomerase): inactive
Oc1nc2cc(I)c(I)cc2o1 [5,6-diiodobenzo[d]oxazol-2-ol]	56.1% of control	99.3% of control	–
CCOC(=O)c1c(NC(=O)/C=C/C(=O)O)sc2c1CCC(C(C)(C)CC)C2 (stereo not drawn) [(E)-3-(3-(ethoxycarbonyl)-6-tert-pentyl-4,5,6,7-tetrahydrobenzo[b]thiophen-2-ylcarbamoyl)acrylic acid]	14.9% of control	90.8% of control	–
CCc1ccc(NC(=O)/C=C/C(=O)O)cc1 [(E)-3-(4-ethylphenylcarbamoyl)acrylic acid]	40.5% of control	89.4% of control	–
CC(C)(C)C1CCc2c(sc(NC(=O)/C=C/C(=O)O)c2C#N)C1 (stereo not drawn) [(E)-3-(6-tert-butyl-3-cyano-4,5,6,7-tetrahydrobenzo[b]thiophen-2-ylcarbamoyl)acrylic acid]	8.4% of control	88.2% of control	–
O=c1c(-c2cc(O)c(O)c(O)c2)coc2cc(O)c(O)c(O)c12 [Irigenol, 5,6,7-trihydroxy-3-(3,4,5-trihydroxyphenyl)-4H-1-benzopyran-4-one]	–	–	Reduction in Melanin [3]: 7.0%; IC50 (D-dopachrome tautomerase): 37.4 µM
O=C1C=CC(=O)c2c(O)cccc21 [Juglone, 5-hydroxy-1,4-naphthalenedione]	–	–	Reduction in Melanin [3]: 32.8%; IC50 (D-dopachrome tautomerase): 14.9 µM
O=c1c(O)c(-c2ccc(O)cc2O)oc2cc(O)cc(O)c12 [Morin, 2-(2,4-dihydroxyphenyl)-3,5,7-4H-1-benzopyran-4-one]	–	–	Reduction in Melanin [3]: 7.2%; IC50 (D-dopachrome tautomerase): 27.4 µM
CC(C)CC(C(=O)NC1CCCC1)N(C(=O)c1snc(C(N)=O)c1N)c1cccc(F)c1 (stereo not drawn) [N5-(1-(cyclopentylcarbamoyl)-3-methylbutyl)-4-amino-N5-(3-fluorophenyl)isothiazole-3,5-dicarboxamide]	64.9% of control	105.2% of control	–
O=C(O[C@@H]1Cc2c(O)cc(O)cc2O[C@@H]1c1cc(O)c(=O)c2c(O)c(O)cc([C@H]3Oc4cc(O)cc(O)c4C[C@H]3OC(=O)c3cc(O)c(O)c(O)c3)c2c1)c1cc(O)c(O)c(O)c1 [Theaflavin Digallate]	–	–	Reduction in Melanin [3]: 26.6%
CCCCC/C=C\C/C=C\C/C=C\C/C=C\CCCC(=O)O [arachidonic acid, reference compound]	–	–	inhibition at 75 µM (D-dopachrome tautomerase; 75 μM final concentration, read-out: inhibition of DDT (positive control)): ~50%
sodium isostearoyl lactylate	–	–	Reduction in Melanin [3]: 6.2%; IC50 (D-dopachrome tautomerase): 14.6 µM
